The source of these data is PMC9329436, “Optimization of the 4-anilinoquin(az)oline scaffold as epidermal growth factor receptor (EGFR) inhibitors for chordoma utilizing a toxicology profiling assay platform” (Scientific Reports, 2022).

The structures appear in SMILES notation. Where “and” joins values, the source holds several entries; their conditions need not be identical. Equal entries are not always repeated.

Sequence of EGFR (P00533 25-1210): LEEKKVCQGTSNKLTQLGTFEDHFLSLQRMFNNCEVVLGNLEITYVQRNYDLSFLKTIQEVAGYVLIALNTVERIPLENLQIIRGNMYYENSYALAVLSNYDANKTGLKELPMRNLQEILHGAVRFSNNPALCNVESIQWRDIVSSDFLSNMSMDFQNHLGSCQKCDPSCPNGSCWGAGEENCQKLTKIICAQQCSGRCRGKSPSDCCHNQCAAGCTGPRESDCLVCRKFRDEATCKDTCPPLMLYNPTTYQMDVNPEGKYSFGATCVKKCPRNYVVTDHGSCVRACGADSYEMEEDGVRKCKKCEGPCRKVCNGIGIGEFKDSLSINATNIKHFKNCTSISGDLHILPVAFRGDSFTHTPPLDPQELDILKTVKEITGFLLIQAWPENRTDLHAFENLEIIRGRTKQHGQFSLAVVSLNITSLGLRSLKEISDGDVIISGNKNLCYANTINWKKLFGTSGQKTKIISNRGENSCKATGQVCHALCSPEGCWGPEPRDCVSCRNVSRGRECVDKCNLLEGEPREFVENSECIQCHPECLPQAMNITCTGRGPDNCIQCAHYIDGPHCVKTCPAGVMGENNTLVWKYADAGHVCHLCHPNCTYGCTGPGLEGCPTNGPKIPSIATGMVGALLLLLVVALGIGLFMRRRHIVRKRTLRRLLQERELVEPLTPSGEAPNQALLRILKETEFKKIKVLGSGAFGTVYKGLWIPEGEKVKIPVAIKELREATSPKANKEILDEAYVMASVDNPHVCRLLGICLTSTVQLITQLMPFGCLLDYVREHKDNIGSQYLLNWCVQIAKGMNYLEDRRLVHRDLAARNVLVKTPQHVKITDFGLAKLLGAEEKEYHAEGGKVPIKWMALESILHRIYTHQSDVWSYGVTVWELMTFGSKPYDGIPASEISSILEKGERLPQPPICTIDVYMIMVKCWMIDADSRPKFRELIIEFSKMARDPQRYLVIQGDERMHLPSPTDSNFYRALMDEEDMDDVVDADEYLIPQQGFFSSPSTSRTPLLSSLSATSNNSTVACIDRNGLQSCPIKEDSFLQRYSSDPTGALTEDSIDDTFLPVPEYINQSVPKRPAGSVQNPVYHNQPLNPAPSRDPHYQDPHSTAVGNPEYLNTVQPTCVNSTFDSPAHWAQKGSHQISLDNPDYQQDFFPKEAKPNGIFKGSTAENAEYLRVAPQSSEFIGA

For the first data set, the system named is U-CH1 chordoma cell line. As to the kind of experiment: Cell viability assay (alamarBlue, 72 h), U-CH1. As to conditions: Homo sapiens, UCH1, 72 h, n = 4, 72 h. The class given is cell-based, human. Put shortly:
(§1)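 Compound added in quadruplicate 24 h after plating; cultures maintained in 4:1 IMDM:RPMI, 10% FBS, gel-coated flasks.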
A general note: Alamar Blue is a resazurin reagent that responds to reducing activity.
One may read the IC50 as the concentration that gives 50% inhibition. Low readings indicate greater potency in that assay, high ones weaker potency in that assay. In turn, `C#Cc1cccc(Nc2ncnc3ccc(I)cc23)c1` [Compound 9, N-(3-ethynylphenyl)-6-iodoquinazolin-4-amine] displayed an IC50 of 8.7 µM.

The data set is the same for the next values; noted with them: n = 4, 72 h.
For the compound `C#Cc1cc(Nc2ncnc3cc(OC)c(OC)cc23)ccc1F` [Compound 44], the IC50 is greater than 100 µM.
`C#Cc1cccc(Nc2ncnc3cc(I)ccc23)c1` [Compound 15]: the IC50 worked out at 17 µM.
As to `C#Cc1cccc(Nc2ncnc3cc(C(F)(F)F)ccc23)c1` [Compound 16], the IC50 came out at 12 µM.

The test system of the next data set is U-CH2 chordoma cell line. The data set is described as follows: Cell viability assay (alamarBlue, 72 h), U-CH2. As to conditions: Homo sapiens, UCH2, n = 4, 72 h. The class given is cell-based, human. The gist of the method:
as §1
As for `C#Cc1cccc(Nc2ncnc3ccc(I)cc23)c1` [Compound 9, N-(3-ethynylphenyl)-6-iodoquinazolin-4-amine], the half-maximal inhibitory concentration (IC50) was greater than 100 µM.

Staying with this data set, now noted: n = 4, 72 h.
`C#Cc1cc(Nc2ncnc3cc(OC)c(OC)cc23)ccc1F` [Compound 44] yielded an IC50 of 22 µM.
In turn, `C#Cc1cccc(Nc2ncnc3cc(I)ccc23)c1` [Compound 15] yielded an IC50 greater than 100 µM.
Compound `C#Cc1cccc(Nc2ncnc3cc(C(F)(F)F)ccc23)c1` [Compound 16] returned a 50% inhibitory concentration (IC50) of 15 µM.

The subject of a further data set is CH22 patient-derived chordoma cell line. The data set is described as follows: Cell viability assay (alamarBlue, 72 h), CH22. It is filed as cell-based, human. As to conditions: Homo sapiens, n = 4, 72 h. How it is done:
(§2) Chordoma cell lines were cultured as described previously[10],[12],[33],[34]. Briefly, U-CH1 and U-CH2 cell lines were cultured in 4:1 IMDM:RPMI medium supplemented with 10% fetal bovine serum (FBS) and 1% penicillin/streptomycin in gel-coated flasks. […] CH22, UM-Chor1, U-CH12, and U-CH7 cell lines were cultured in RPMI medium supplemented with 10% FBS and 1% penicillin/streptomycin. The cell lines all undergo regular mycoplasma screening.
(§3) Cells were seeded in 384 well plates and were treated with test compound in quadruplicate 24 h after plating. Cell viability was assessed at 72 h using alamarBlue (ThermoFisher, USA). […] IC50 values were determined by four-parameter nonlinear regression analyses using GraphPad Prism™ version 8 software (San Diego, CA).
The compound `C#Cc1cccc(Nc2ncnc3ccc(I)cc23)c1` [Compound 9, N-(3-ethynylphenyl)-6-iodoquinazolin-4-amine] came in with an IC50 greater than 100 µM.

The same data set, now with this note: n = 4, 72 h.
`C#Cc1cc(Nc2ncnc3cc(OC)c(OC)cc23)ccc1F` [Compound 44] gave an IC50 of 0.3 µM.
As for `C#Cc1cccc(Nc2ncnc3cc(I)ccc23)c1` [Compound 15], the 50% inhibitory concentration (IC50) is greater than 100 µM.
With `C#Cc1cccc(Nc2ncnc3cc(C(F)(F)F)ccc23)c1` [Compound 16], inhibition was half-maximal at 8 µM (IC50).

The next data set deals with UM-Chor1 patient-derived chordoma cell line. As to the kind of experiment: Cell viability assay (alamarBlue, 72 h), UM-Chor1. It is filed as cell-based, human. As to conditions: Homo sapiens, n = 4, 72 h. How it is done: as §2, §3
Regarding `C#Cc1cccc(Nc2ncnc3ccc(I)cc23)c1` [Compound 9, N-(3-ethynylphenyl)-6-iodoquinazolin-4-amine], the IC50 is greater than 100 µM.

The same data set, now with this note: n = 4, 72 h.
On to `C#Cc1cc(Nc2ncnc3cc(OC)c(OC)cc23)ccc1F` [Compound 44], for which the 50% inhibitory concentration (IC50) was 7.2 µM.
For the compound `C#Cc1cccc(Nc2ncnc3cc(I)ccc23)c1` [Compound 15], the IC50 is greater than 100 µM.
Still for that read-out and setting: with `C#Cc1cccc(Nc2ncnc3cc(C(F)(F)F)ccc23)c1` [Compound 16] the figure was 31 µM.

A further data set has as its system U-CH12 patient-derived chordoma cell line. As to the kind of experiment: Cell viability assay (alamarBlue, 72 h), U-CH12. As to conditions: Homo sapiens, n = 4, 72 h. It is filed as cell-based, human. How it is done:
as §2, §3
In turn, `C#Cc1cccc(Nc2ncnc3ccc(I)cc23)c1` [Compound 9, N-(3-ethynylphenyl)-6-iodoquinazolin-4-amine] showed an IC50 greater than 100 µM.

Still in this data set, the particulars now being: n = 4, 72 h.
In the case of `C#Cc1cc(Nc2ncnc3cc(OC)c(OC)cc23)ccc1F` [Compound 44], 0.87 µM corresponded to half-maximal inhibition (IC50).
Regarding `C#Cc1cccc(Nc2ncnc3cc(I)ccc23)c1` [Compound 15], the IC50 was greater than 100 µM.
As for `C#Cc1cccc(Nc2ncnc3cc(C(F)(F)F)ccc23)c1` [Compound 16], half-maximal inhibition (IC50) required 7.5 µM.

The test system of the next data set is U-CH7 patient-derived chordoma cell line. The data set is described as follows: Cell viability assay (alamarBlue, 72 h), U-CH7. As to conditions: Homo sapiens, n = 4, 72 h. It is filed as cell-based, human. How it is done: as §2, §3
`C#Cc1cccc(Nc2ncnc3ccc(I)cc23)c1` [Compound 9, N-(3-ethynylphenyl)-6-iodoquinazolin-4-amine] returned a 50% inhibitory concentration (IC50) greater than 100 µM.

The data set is the same for the next values; noted with them: n = 4, 72 h.
In turn, `C#Cc1cc(Nc2ncnc3cc(OC)c(OC)cc23)ccc1F` [Compound 44] displayed a concentration for half-maximal inhibition (IC50) of 0.68 µM.
The same measure, in the same setting: the value for `C#Cc1cccc(Nc2ncnc3cc(I)ccc23)c1` [Compound 15] was greater than 100 µM.
As to `C#Cc1cccc(Nc2ncnc3cc(C(F)(F)F)ccc23)c1` [Compound 16], the IC50 was determined as 63 µM. In other words, the double-digit micromolar range.

For another data set, the system named is WS1 human fibroblast cell line. The data set is described as follows: Cell viability assay, WS1 toxicity control. It is filed as cell-based. As to conditions: Homo sapiens, Fibroblast, n = 4, nonspecific toxicity control. How it is done:
as §3
In turn, `C#Cc1cccc(Nc2ncnc3ccc(I)cc23)c1` [Compound 9, N-(3-ethynylphenyl)-6-iodoquinazolin-4-amine] showed an IC50 of 98 µM.

Still in this data set, the particulars now being: n = 4, nonspecific toxicity control.
`C#Cc1cc(Nc2ncnc3cc(OC)c(OC)cc23)ccc1F` [Compound 44] had an IC50 of 0.33 µM.
`C#Cc1cccc(Nc2ncnc3cc(I)ccc23)c1` [Compound 15] showed an IC50 greater than 100 µM.
Take `C#Cc1cccc(Nc2ncnc3cc(C(F)(F)F)ccc23)c1` [Compound 16]: half-maximal inhibition (IC50) required 18 µM.

The test system of the next data set is HL60 cells. As to the kind of experiment: AsedaSciences SYSTEMETRIC Cell Health Screen (flow cytometry toxicity profiling). As to conditions: HL60, 4 h, 5 nM–100 µM, probability 0–1, n = 2. The gist of the method:
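Risk scores derive from a logistic-regression ML classifier comparing flow-cytometric stress phenotypes with those of 300 reference compounds of known high or low human risk. Phenotypes: light scatter plus fluorescent physiological dyes, twelve parameters, no gating. Compounds tested 5 nM–100 µM (3× steps, duplicate) on HL60 cells, 4 h, 37 °C.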
Turning to `C#Cc1cc(Nc2ncnc3cc(OC)c(OC)cc23)ccc1F` [Compound 44], the “CC: Cell Cycle score” value worked out at 0.027, the “CM: Cell morphology score” value is on record as 0.83, the “CMI: Cell membrane integrity score” value is 0.40 and the “GSH: Glutathione score” value amounted to 0.054. Besides, the “MMP: Mitochondrial membrane depolarization score” value was found to be 0.15, the “NMI1: Nuclear membrane integrity 1 score” value was 0.44, the “NMI2: Nuclear membrane integrity 2 score” value is on record as 0.18 and the “ROS: Reactive superoxide species score” value stood at 0.66.
Take `C#Cc1cccc(Nc2ncnc3cc(I)ccc23)c1` [Compound 15]: the “CC: Cell Cycle score” value came out at 0.95, the “CM: Cell morphology score” value came to 1.00, the “CMI: Cell membrane integrity score” value is reported as 1.00 and the “GSH: Glutathione score” value was 0.98. The “MMP: Mitochondrial membrane depolarization score” value is 0.99, the “NMI1: Nuclear membrane integrity 1 score” value turned out to be 0.21, the “NMI2: Nuclear membrane integrity 2 score” value is reported as 0.94 and the “ROS: Reactive superoxide species score” value was determined as 1.00.
Take `C#Cc1cccc(Nc2ncnc3cc(C(F)(F)F)ccc23)c1` [Compound 16]: the “CC: Cell Cycle score” value came out at 0.92, the “CM: Cell morphology score” value stood at 1.00, the “CMI: Cell membrane integrity score” value came out at 0.87 and the “GSH: Glutathione score” value came out at 0.79. The “MMP: Mitochondrial membrane depolarization score” value is recorded as 1.00, the “NMI1: Nuclear membrane integrity 1 score” value was 0.6, the “NMI2: Nuclear membrane integrity 2 score” value came to 0.93 and the “ROS: Reactive superoxide species score” value came to 1.00.
For `C#Cc1cccc(Nc2ncnc3ccc(I)cc23)c1` [Compound 9, N-(3-ethynylphenyl)-6-iodoquinazolin-4-amine], the “CC: Cell Cycle score” value is 0.087 and 0.071; the “CM: Cell morphology score” value was found to be 0.0063; the “GSH: Glutathione score” value is 0.050 and 0.029; the “NMI1: Nuclear membrane integrity 1 score” value is 0.13 and 0.069. Besides, the “ROS: Reactive superoxide species score” value was 0.083 and 0.088.

Staying with this data set, now noted: HL60, 4 h, 5 nM–100 µM, probability (0–1) of high-risk class, n = 2.
Consider `C#Cc1cc(Nc2ncnc3cc(OC)c(OC)cc23)ccc1F` [Compound 44], for which the “CHI: Cell Health Index” value is reported as 0.34.
`C#Cc1cccc(Nc2ncnc3cc(I)ccc23)c1` [Compound 15]: the “CHI: Cell Health Index” value stood at 0.77.
Turning to `C#Cc1cccc(Nc2ncnc3cc(C(F)(F)F)ccc23)c1` [Compound 16], the “CHI: Cell Health Index” value turned out to be 0.78.
Turning to `C#Cc1cccc(Nc2ncnc3ccc(I)cc23)c1` [Compound 9, N-(3-ethynylphenyl)-6-iodoquinazolin-4-amine], the “CHI: Cell Health Index” value stood at 0.21.

A further data set concerns the target EGFR (Homo sapiens, UniProt P00533). The data set is described as follows: ProQinase in-cell EGFR assay (EGFR phosphorylation in A431 cells). The class given is cell-based. Further details: This cell line endogenously expresses a high level of EGFR; endogenous in cells; host or cells: A431. As to conditions: ProQinase in-cell EGFR assay, A431 cells, n = 1. An excerpt: In addition, we ran an EGFR in-cell target engagement assay, measuring in-cell EGFR phosphorylation, using the human epidermoid carcinoma cell line A431. This cell line endogenously expresses a high level of EGFR, and stimulation of these cells with human epidermal growth factor (EGF) results in receptor tyrosine autophosphorylation.
For `C#Cc1cc(Nc2ncnc3cc(OC)c(OC)cc23)ccc1F` [Compound 44], half-maximal inhibition (IC50) required 0.03 µM.
In turn, `C#Cc1cccc(Nc2ncnc3cc(I)ccc23)c1` [Compound 15] returned an IC50 of 2.8 µM. Against the preceding compound, the IC50 is about 93-fold higher.
Consider `C#Cc1cccc(Nc2ncnc3cc(C(F)(F)F)ccc23)c1` [Compound 16], for which the 50% inhibitory concentration (IC50) is greater than 20 µM.
The compound `C#Cc1cccc(Nc2ncnc3ccc(I)cc23)c1` [Compound 9, N-(3-ethynylphenyl)-6-iodoquinazolin-4-amine] yielded a half-inhibitory concentration (IC50) of 0.83 µM.

Staying with this data set, now noted: in-cell EGFR inhibition.
For the compound `C#Cc1cc(Nc2ncnc3cc(OC)c(OC)cc23)ccc1F` [Compound 44], the IC50 is less than 0.1 µM.
